Measured values published in PMC4556431 (Angewandte Chemie (International ed. in English), 2015).

Molecular target: Cif (CFTR inhibitory factor) (Pseudomonas aeruginosa, UniProt A0A0H2ZD27)
Experiment: epoxide hydrolase inhibition assay
Assay type: biochemical

Cif (CFTR inhibitory factor), sequence (A0A0H2ZD27 25-319 limits assumed): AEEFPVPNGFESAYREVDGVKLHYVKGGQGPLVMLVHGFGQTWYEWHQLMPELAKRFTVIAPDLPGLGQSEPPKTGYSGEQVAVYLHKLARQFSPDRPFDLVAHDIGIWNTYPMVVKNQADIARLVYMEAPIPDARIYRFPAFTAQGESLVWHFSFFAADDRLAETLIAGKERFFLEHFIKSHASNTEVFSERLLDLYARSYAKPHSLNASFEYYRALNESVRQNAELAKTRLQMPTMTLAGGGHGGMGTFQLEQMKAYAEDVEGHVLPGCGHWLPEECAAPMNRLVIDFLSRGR

## N[C@@H](Cc1cc(I)c(Oc2cc(I)c(O)c(I)c2)c(I)c1)C(=O)O [compound 9, 9]
  IC50: > 100 µM
